In one data set the test system is FTLD-U mice. The data set is described as follows: Motor function of FTLD-U mice treated with other autophagy inducers (FIG. 5). The class given is in vivo. As to conditions: tamoxifen 80 mg/Kg s.c. once per day one week, carbamazepine 50 mg/Kg i.p. once per day two weeks, spermidine 50 mg/Kg i.p. once per day one week. As to the method:
Other autophage inducers for administration to the FTLD-U mice include tamoxifen, carbamazepine, calpastatin, minoxidial, spermidine and trehalose. […] Carbamazepine can lower inositol and IP3 levels. Calpastatin is a calpain inhibitor. Minoxidial is a K^+ATP channel opener. Spermidine can decrease ROS and increases beclin 1. The effect of trehalose is unknown. Tamoxifen (80 mg/Kg) was administered via subcutaneous injection, once per day for one week. carbamazepine (50 mg/Kg) was administered i.p. once per day for two weeks. Spermidine (50 mg/Kg) was administered i.p. once per day for one week.

The next data set concerns ALS mice (SOD1G93A). As to conditions: cited from earlier work.

Each structure is given as a SMILES string.

With `NC(=O)N1c2ccccc2C=Cc2ccccc21` [carbamazepine], the motor function deficits entry in the data set with FTLD-U mice is on record as “rescued the motor function deficits”.

Take `CO[C@H]1C[C@@H]2CC[C@@H](C)[C@@](O)(O2)C(=O)C(=O)N2CCCC[C@H]2C(=O)O[C@H]([C@H](C)C[C@@H]2CC[C@@H](O)[C@H](OC)C2)CC(=O)[C@H](C)/C=C(\C)[C@@H](O)[C@@H](OC)C(=O)[C@H](C)C[C@H](C)/C=C/C=C/C=C/1C` [rapamycin]: in the data set on ALS mice (SOD1G93A), the mitochondria impairment entry is on record as “more server mitochondria impairment”.

For the compound `NCCCCNCCCN` [spermidine], in the data set with FTLD-U mice, the motor function deficits result is “rescued the motor function deficits”.

As to `CC/C(=C(\c1ccccc1)c1ccc(OCCN(C)C)cc1)c1ccccc1` [tamoxifen], the motor function deficits result in the data set on FTLD-U mice is reported as “rescued the motor function deficits”.

Source of the values: patent publication US9186356B2, “Methods for treating frontotemporal lobar degeneration with ubiquitinated inclusions (FTLD-U)” (Academia Sinica, priority 2011, dated 2015).
